Experimental data: patent EP0889898B1, “MORPHOLINYL ANTHRACYCLINE DERIVATIVES” (PHARMACIA & UPJOHN S.p.A., priority 1996, dated 1998)

Test system: L1210 leukemia cells
Test: In vitro cytotoxic activity, growth inhibition test (colony growth), 48h treatment
Type: cell-based
Conditions: ratio of IC50 values versus compound 1
Experimental: 3'-Deamino-3",4'-anhydro-[2"(S)-methoxy-3"(R)-hydroxy-4"-morpholinyl]doxorubicin 2a was tested in vitro on L1210 leukemia cells in comparison with 3'-deamino-3'-[2"(S)-methoxy-4"-morpholinyl]doxorubicin (1). The cytotoxic activity is reported as IC50, the concentration inhibiting 50% of colony growth, calculated on concentration response curves. […]

COc1cccc2c1C(=O)c1c(O)c3c(c(O)c1C2=O)CC(O)(C(=O)CO)CC3OC1CC2C(OC3C(OC)OCCN23)C(C)O1 [Compound 2a, 3'-deamino-3"-4'-anhydro-[2"(S)-methoxy-3"(R)-hydroxy-4"-morpholinyl]doxorubicin]
fold more potent than compound 1: 2.5x10^3 fold
